# According to US9187471B2, “Pyrido [4,3-b] indole and pyrido [3,4-b] indole derivatives and methods of use” (Medivation Technologies, Inc., priority 2010, dated 2015):
# Columns and labels:
# [1] = target: T1, human recombinant serotonin (5-Hydroxytryptamine) 5-HT6 receptor (Homo sapiens, UniProt P50406); test: Serotonin 5-HT6 radioligand binding ([3H]LSD); details: compound at 0.1 μM; read-out: Inhibition of ligand binding, Serotonin 5-HT6 (percent inhibition of specific binding)
# T1 construct: expressed in transfected cells; host or cells: HeLa
# T1 sequence (P50406 whole entry): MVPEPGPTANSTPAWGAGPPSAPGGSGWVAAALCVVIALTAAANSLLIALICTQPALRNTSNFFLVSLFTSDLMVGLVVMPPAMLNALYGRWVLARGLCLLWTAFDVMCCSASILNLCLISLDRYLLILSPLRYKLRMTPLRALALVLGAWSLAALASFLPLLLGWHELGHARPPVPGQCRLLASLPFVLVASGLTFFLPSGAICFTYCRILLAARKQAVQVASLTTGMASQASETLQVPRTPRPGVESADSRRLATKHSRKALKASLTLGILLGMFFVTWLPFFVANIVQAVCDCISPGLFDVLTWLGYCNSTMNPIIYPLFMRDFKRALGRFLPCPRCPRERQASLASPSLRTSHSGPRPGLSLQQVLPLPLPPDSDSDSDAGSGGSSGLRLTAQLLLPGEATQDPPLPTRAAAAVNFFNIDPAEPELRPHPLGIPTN
# Description: Receptor proteins were filtered and washed, the filters were then counted to determine [3H]LSD specifically bound.
# [2] = target: T2, human recombinant histamine H1 receptor (Homo sapiens, UniProt P35367); test: Histamine H1 radioligand binding ([3H]Pyrilamine); details: read-out: Histamine H1 Binding (1 μM), percent inhibition of specific binding; compound at 1 μM; 1.2 nM [3H]Pyrilamine
# T2 construct: expressed in transfected cells; host or cells: CHO-K1
# T2 sequence (P35367 whole entry): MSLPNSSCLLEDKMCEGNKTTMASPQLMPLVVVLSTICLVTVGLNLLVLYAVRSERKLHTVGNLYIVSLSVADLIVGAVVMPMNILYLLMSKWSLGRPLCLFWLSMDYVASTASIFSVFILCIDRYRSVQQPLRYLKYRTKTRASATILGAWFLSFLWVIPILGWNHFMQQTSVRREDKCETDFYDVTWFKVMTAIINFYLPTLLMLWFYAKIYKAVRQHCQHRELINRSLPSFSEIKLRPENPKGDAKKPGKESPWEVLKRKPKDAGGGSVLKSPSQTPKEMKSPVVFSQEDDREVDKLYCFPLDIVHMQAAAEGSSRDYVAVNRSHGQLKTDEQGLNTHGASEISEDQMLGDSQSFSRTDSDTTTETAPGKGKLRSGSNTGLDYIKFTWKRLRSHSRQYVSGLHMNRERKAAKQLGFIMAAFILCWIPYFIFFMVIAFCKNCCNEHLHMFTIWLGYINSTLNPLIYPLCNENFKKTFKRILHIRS
# Description: To evaluate in radioligand binding assays the activity of compounds of the invention, human recombinant histamine H1 receptor expressed in Chinese hamster ovary (CHO) K1 cells (De Backer, M. et al, Biochem. Biophys. Res. Comm. 197(3):1601, 1993) in a modified Tris-HCl buffer (50 mM Tris-HCl, pH 7.4, 2 mM MgCl2, 100 mM NaCl, 250 mM Sucrose) was used. […] Non-specific binding was estimated in the presence of 1 μM Pyrilamine. Receptor proteins were filtered and washed, the filters were then counted to determine [^3H]Pyrilamine specifically bound. […] Biochemical assay results are presented as the percent inhibition of specific binding in Table 2.
# [3] = target: T3, human recombinant serotonin (5-Hydroxytryptamine) 5-HT7 receptor (Homo sapiens, UniProt P34969); test: Serotonin 5-HT7 radioligand binding ([3H]LSD); details: compound at 0.1 μM; read-out: Inhibition of ligand binding, Serotonin 5-HT7 (percent inhibition of specific binding)
# T3 construct: expressed in transfected cells; host or cells: CHO
# T3 sequence (P34969 whole entry): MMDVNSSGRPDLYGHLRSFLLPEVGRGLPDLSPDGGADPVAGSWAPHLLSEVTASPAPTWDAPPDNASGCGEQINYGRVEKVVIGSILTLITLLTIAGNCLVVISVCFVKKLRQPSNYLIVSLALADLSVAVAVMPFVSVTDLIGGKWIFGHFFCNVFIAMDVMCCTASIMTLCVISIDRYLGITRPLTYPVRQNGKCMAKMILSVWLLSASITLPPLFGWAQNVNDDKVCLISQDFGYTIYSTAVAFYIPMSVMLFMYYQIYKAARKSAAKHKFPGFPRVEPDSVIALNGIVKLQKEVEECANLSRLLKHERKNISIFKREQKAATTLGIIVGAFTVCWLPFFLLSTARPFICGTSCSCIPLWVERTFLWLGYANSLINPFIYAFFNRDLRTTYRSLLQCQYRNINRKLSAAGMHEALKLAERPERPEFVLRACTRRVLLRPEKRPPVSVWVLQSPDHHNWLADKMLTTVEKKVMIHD
# Description: Lysergic acid diethylamide (LSD) for 120 min. at 25° C. […] Receptor proteins were filtered and washed, the filters were then counted to determine [^3H]LSD specifically bound.
# [4] = target: T4, human recombinant serotonin (5-Hydroxytryptamine) 5-HT2C receptor (Homo sapiens, UniProt P28335); test: Serotonin 5-HT2C radioligand binding ([3H]Mesulergine); details: compound at 0.1 μM; read-out: Inhibition of ligand binding, Serotonin 5-HT2C (percent inhibition of specific binding)
# T4 construct: expressed in transfected cells; host or cells: CHO-K1
# T4 sequence (P28335 33-458): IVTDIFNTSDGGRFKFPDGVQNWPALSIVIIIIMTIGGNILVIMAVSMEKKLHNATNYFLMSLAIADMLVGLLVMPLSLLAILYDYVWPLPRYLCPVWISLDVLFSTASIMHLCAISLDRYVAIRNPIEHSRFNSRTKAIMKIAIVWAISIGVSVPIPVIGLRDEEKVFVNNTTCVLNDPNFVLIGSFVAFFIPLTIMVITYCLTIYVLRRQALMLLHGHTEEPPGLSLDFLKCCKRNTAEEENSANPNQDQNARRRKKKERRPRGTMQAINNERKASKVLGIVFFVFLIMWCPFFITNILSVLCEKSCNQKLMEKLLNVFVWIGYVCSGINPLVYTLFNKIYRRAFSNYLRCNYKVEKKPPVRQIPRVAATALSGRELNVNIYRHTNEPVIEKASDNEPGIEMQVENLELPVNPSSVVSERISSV
# Description: Compounds of the invention were incubated with 1 nM [^3H]Mesulergine for 60 min at 25° C. Non-specific binding was estimated in the presence of 1 μM Mianserin. Receptor proteins were filtered and washed, the filters were then counted to determine [^3H]Mesulergine specifically bound.
# [5] = target: T5, human recombinant dopamine D2L receptor (Homo sapiens, UniProt P14416); test: Dopamine D2L radioligand binding ([3H]Spiperone); details: read-out: Dopamine D2L (1 μM), percent inhibition of specific binding; compound at 1 μM; 0.16 nM [3H]Spiperone
# T5 construct: expressed in transfected cells; host or cells: CHO
# T5 sequence (P14416 whole entry): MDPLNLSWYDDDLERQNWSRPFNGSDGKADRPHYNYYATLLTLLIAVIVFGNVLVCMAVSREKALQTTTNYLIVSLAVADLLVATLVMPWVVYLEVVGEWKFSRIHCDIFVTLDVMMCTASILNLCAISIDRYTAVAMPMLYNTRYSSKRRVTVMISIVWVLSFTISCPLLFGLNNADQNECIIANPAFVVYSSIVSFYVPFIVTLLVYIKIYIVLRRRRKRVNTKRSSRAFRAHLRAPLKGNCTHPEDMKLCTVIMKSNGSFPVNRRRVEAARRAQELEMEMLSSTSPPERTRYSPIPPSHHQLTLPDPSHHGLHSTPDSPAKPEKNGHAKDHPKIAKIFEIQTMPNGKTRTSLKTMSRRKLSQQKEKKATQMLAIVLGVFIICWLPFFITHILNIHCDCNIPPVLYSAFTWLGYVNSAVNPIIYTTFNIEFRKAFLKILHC
# Description: Non-specific binding was estimated in the presence of 10 μM Haloperidol. Receptor proteins were filtered and washed, the filters were then counted to determine [^3H]Spiperone specifically bound.
# [6] = target: T6, human recombinant serotonin (5-Hydroxytryptamine) 5-HT2A receptor (Homo sapiens, UniProt P28223); test: Serotonin 5-HT2A radioligand binding ([3H]Ketanserin); details: compound at 0.1 μM; read-out: Inhibition of ligand binding, Serotonin 5-HT2A (percent inhibition of specific binding)
# T6 construct: expressed in transfected cells; host or cells: CHO-K1
# T6 sequence (P28223 whole entry): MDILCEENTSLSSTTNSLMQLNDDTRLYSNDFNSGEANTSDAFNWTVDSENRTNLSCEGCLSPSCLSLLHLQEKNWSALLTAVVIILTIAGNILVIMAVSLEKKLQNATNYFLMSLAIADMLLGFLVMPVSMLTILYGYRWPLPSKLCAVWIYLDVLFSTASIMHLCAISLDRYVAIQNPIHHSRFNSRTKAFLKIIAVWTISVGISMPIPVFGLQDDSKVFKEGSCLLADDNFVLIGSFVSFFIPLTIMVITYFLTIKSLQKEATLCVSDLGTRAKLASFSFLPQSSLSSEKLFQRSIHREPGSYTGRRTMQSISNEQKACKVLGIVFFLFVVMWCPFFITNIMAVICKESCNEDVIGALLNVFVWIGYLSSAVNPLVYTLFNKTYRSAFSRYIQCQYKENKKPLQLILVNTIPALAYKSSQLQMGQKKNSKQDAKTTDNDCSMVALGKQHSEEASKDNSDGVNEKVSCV
# Description: Compounds of the invention were incubated with 0.5 nM [^3H]Ketanserin for 60 min at 25° C. Non-specific binding was estimated in the presence of 1 μM Mianserin. Receptor proteins were filtered and washed, the filters were then counted to determine [^3H]Ketanserin specifically bound.
SMILES,inhibition at 0.1 µM [1] [%],inhibition at 1 µM [2] [%],inhibition at 0.1 µM [3] [%],inhibition at 0.1 µM [4] [%],inhibition at 1 µM [5] [%],inhibition at 0.1 µM [6] [%]
"Cc1ccc2c(c1)c1c(n2-c2cscc2-c2ccccc2)CCN(C)C1 [Compound 21, 2,8-dimethyl-5-(4-phenyl-thiophen-3-yl)-2,3,4,5-tetrahydro-1H-pyrido[4,3-b]indole]",62,86,99,96,54,90
"Cc1ccc2c(c1)c1c(n2-c2cscc2-c2cccnc2)CCN(C)C1 [Compound 22, 2,8-dimethyl-5-(4-pyridin-3-yl-thiophen-3-yl)-2,3,4,5-tetrahydro-1H-pyrido[4,3-b]indole]",14,85,91,80,39,75
"Cc1ccc2c(c1)c1c(n2-c2ccccc2)CCN(C)C1 [Compound 1, 2,8-dimethyl-5-phenyl-2,3,4,5-tetrahydro-1H-pyrido[4,3-b]indole]",63,70,21,88,67,100
"Cc1ccc2c(c1)c1c(n2-c2cccc3cnccc23)CCN(C)C1 [Compound 9, 5-isoquinolin-5-yl-2,8-dimethyl-2,3,4,5-tetrahydro-1H-pyrido[4,3-b]indole]",5,65,59,77,0,54
CN1CCc2c(c3cc(Cl)ccc3n2-c2cscc2-c2cccnc2)C1 [Compound 27],30,76,94,72,26,67
"Cc1ccc2c(c1)c1c(n2-c2ccccc2-c2ccccc2)CCN(C)C1 [Compound 8, 5-biphenyl-2-yl-2,8-dimethyl-2,3,4,5-tetrahydro-1H-pyrido[4,3-b]indole]",52,92,65,97,30,99
"Cc1ccc2c(c1)c1c(n2-c2ccccc2-c2ccc(S(C)(=O)=O)cc2)CCN(C)C1 [Compound No. 160, 2,8-dimethyl-5-(4′-(methylsulfonyl)biphenyl-2-yl)-2,3,4,5-tetrahydro-1H-pyrido[4,3-b]indole]",18,–,17,–,–,36
CN1CCc2c(c3cc(Cl)ccc3n2-c2cscc2-c2ccccc2)C1 [Compound 26],61,91,95,96,47,86
"Cc1ccc2c(c1)c1c(n2-c2ccccc2N(C)C)CCN(C)C1 [Compound 6, [2-(2,8-dimethyl-1,2,3,4-tetrahydro-pyrido[4,3-b]indol-5-yl)-phenyl]-dimethyl-amine]",28,99,49,90,58,91
"Cc1ccc2c(c1)c1c(n2-c2ccccc2-c2cnccc2C)CCN(C)C1 [Compound No. 159, 2,8-dimethyl-5-(2-(4-methylpyridin-3-yl)phenyl)-2,3,4,5-tetrahydro-1H-pyrido[4,3-b]indole]",0,–,19,–,–,48
Cc1ccc2c(c1)c1c(n2-c2cscc2-c2ccc(F)cc2)CCN(C)C1 [Compound 23],45,72,98,90,44,83
"Cc1ccc2c(c1)c1c(n2-c2ccncc2)CCN(C)C1 [Compound 2, 2,8-dimethyl-5-pyridin-4-yl-2,3,4,5-tetrahydro-1H-pyrido[4,3-b]indole]",17,51,36,54,13,74
"COc1ccc(-n2c3c(c4cc(C)ccc42)CN(C)CC3)cn1 [Compound 17, 5-(6-Methoxy-pyridin-3-yl)-2,8-dimethyl-2,3,4,5-tetrahydro-1H-pyrido[4,3-b]indole]",17,23,1,44,10,62
"Cc1ccc2c(c1)c1c(n2-c2ccccc2-c2ccc(S(N)(=O)=O)cc2)CCN(C)C1 [Compound No. 163, 2′-(2,8-dimethyl-3,4-dihydro-1H-pyrido[4,3-b]indol-5(2H)-yl)biphenyl-4-sulfonamide]",13,–,36,–,–,73
"Cc1ccc2c(c1)c1c(n2-c2ccc(C)nc2)CCN(C)C1 [Compound 3, 2,8-dimethyl-5-(6-methyl-pyridin-3-yl)-2,3,4,5-tetrahydro-1H-pyrido[4,3-b]indole]",20,10,8,26,16,36
"Cc1ccc2c(c1)c1c(n2-c2cscc2-c2ccncc2)CCN(C)C1 [Compound 20, 2,8-dimethyl-5-(4-pyridin-4-yl-thiophen-3-yl)-2,3,4,5-tetrahydro-1H-pyrido[4,3-b]indole]",18,42,97,85,9,78
"Cc1ccc2c(c1)c1c(n2-c2ccc(C(F)(F)F)nc2)CCN(C)C1 [Compound 4, 2,8-dimethyl-5-(6-trifluoromethyl-pyridin-3-yl)-2,3,4,5-tetrahydro-1H-pyrido[4,3-b]indole]",14,-1,1,73,0,67
"Cc1ccc2c(c1)c1c(n2-c2cscn2)CCN(C)C1 [Compound 19, 2,8-dimethyl-5-thiazol-4-yl-2,3,4,5-tetrahydro-1H-pyrido[4,3-b]indole]",15,59,51,71,14,64
CN1CCc2c(c3cc(Cl)ccc3n2-c2cscc2-c2ccc(F)cc2)C1 [Compound 25],56,80,94,91,39,81
"Cc1ccc2c(c1)c1c(n2-c2cnc(C)c3ccccc23)CCN(C)C1 [Compound No. 164, 2,8-dimethyl-5-(1-methylisoquinolin-4-yl)-2,3,4,5-tetrahydro-1H-pyrido[4,3-b]indole]",1,–,4,–,–,23
"Cc1ccc2c(c1)c1c(n2-c2ncccc2-c2ccncc2)CCN(C)C1 [Compound No. 161, 5-(3,4′-bipyridin-2-yl)-2,8-dimethyl-2,3,4,5-tetrahydro-1H-pyrido[4,3-b]indole]",4,–,18,–,–,17
